Tests used:
[1] = target: T1, porcine pancreatic lipase (PPL) (Sus scrofa, UniProt P00591); test: In vitro digestion in simulated intestinal fluid (SIF), pH-stat; assay type: in vitro ADME; settings: SIF alone; emulsion with 200 mg fat; pH 6.8, 37° C.
T1 construct: by porcine pancreatic lipase (from pancreatin); from tissue; host or cells: pancreatin (pancreatic extract)
T1 sequence (P00591 1-450): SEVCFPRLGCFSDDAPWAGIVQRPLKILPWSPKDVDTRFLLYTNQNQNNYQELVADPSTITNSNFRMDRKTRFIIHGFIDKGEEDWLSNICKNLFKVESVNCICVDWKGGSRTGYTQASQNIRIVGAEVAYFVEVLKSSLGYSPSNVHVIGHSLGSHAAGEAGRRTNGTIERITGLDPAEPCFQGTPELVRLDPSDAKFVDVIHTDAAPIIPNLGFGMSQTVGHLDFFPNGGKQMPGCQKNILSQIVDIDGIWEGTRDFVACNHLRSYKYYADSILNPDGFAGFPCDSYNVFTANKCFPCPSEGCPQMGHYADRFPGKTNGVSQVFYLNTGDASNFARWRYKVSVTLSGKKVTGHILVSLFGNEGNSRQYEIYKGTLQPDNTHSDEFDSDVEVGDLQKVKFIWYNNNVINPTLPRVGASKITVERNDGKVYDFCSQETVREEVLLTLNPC
T1 sequence (P02703 23-112 partner): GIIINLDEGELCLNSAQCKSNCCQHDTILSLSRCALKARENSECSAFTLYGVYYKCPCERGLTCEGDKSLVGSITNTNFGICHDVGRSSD
Source text: (§1) An emulsion was then created using an ultrasonic probe homogeniser.

[2] = test system: rabbit gastric lipase (RGL) followed by porcine pancreatic lipase (PPL); test: Sequential in vitro digestion, simulated gastric fluid (SGF) then simulated intestinal fluid (SIF); assay type: in vitro ADME
Source text: as §1

Human primary myoblasts = test: Muscle stem cell commitment (MyoD+ cells); assay type: cell-based; settings: donors 8 and 4; 96 hours culture; FIG. 3
Method: Human primary myoblasts from two different donors (donor 8 & donor 4) were seeded in 384 well plates at a density of 1'000 cells per well in skeletal muscle growth medium (SKM-M, AMSbio). For treatment, compounds were directly added to the myoblast cultures 16 hours after initial plating. All cultures were then grown for 96 hours. Cells were stained for Pax7 and MyoD expression using antibodies directed against Pax7 and MyoD and counterstained with Hoechst 33342 to visualize cell nuclei. […] Image acquisition was performed using the ImageXpress (Molecular Devices) platform. Custom module analysis based on Multi-Wavelength Cell Scoring of the MetaXpress software was used for quantification. For each condition, the total number of cells was determined to evaluate compound toxicity, and the number of MyoD+ cells was normalized to the total cell number in order to evaluate the proportion of this population. *, **, ***, **** indicates difference from the control (DMSO 1%), One-way ANOVA, with p<0.05, p<0.01, p<0.001, p<0.0001, respectively. Data are presented as Mean +/− SEM

CCCC(=O)OCC(COC(=O)CCC)OC(=O)CCC [tributyrin]
Initial rate of lipolysis [1]: 223 ± 59 µmol/min | Initial lipolysis rate in SIF ([2]; SGF-SIF sequential digestion, measured in SIF compartment): 44.1 ± 8.8 µmol/min | Hydrolysis in the stomach (gastric lipolysis), in words ([2]; gastric compartment, inferred from SGF-SIF vs SIF): extensive hydrolysis in the stomach | Lipolysis by gastric lipase ([2]; indicated by decreased total fatty acid release in SIF after RGL in SGF): −60%

CCCC(=O)[O-].[Na+] [sodium butyrate]
Myogenic commitment (MyoD+ cells normalized to total cell number) (Human primary myoblasts): promotes muscle stem cell differention

From US12317913B2, “Dietary butyrate” (SOCIETE DES PRODUITS NESTLE S.A., priority 2019, dated 2025)
